According to the NIST ThermoML archive (doi:10.1016/j.jct.2016.02.010):
Numbers after ± are expanded uncertainties.

Tests used:
[1] = molar heat capacity at constant pressure; conditions: 101.33 kPa, Small sample (50 mg) DSC
[2] = Crystal; for vapor or sublimation pressure: Calculated from knudsen effusion weight loss; for Normal melting temperature: DTA
[3] = Molar enthalpy of transition or fusion; conditions: Crystal; DSC

OC(c1ccccc1)(c1ccccc1)c1ccccc1 [triphenylmethanol]
[1], Crystal
Conditions	molar heat capacity at constant pressure [J/K/mol]
259.15 K	283 ± 9.4
260.15 K	283.6 ± 9.4
261.15 K	284.9 ± 9.5
262.15 K	285.6 ± 9.5
263.15 K	286.4 ± 9.5
264.15 K	288.3 ± 9.6
265.15 K	289.5 ± 9.6
266.15 K	290.4 ± 9.6
267.15 K	291.2 ± 9.7
268.15 K	290.8 ± 9.6
269.15 K	292.3 ± 9.7
270.15 K	293.4 ± 9.7
271.15 K	294.3 ± 9.8
272.15 K	295.3 ± 9.8
273.15 K	296.5 ± 9.8
274.15 K	297.4 ± 9.9
275.15 K	297.3 ± 9.9
276.15 K	298.6 ± 9.9
277.15 K	299.8 ± 9.9
278.15 K	301.2 ± 10
279.15 K	302.1 ± 10
280.15 K	302.8 ± 10
281.15 K	303.4 ± 10
282.15 K	304.7 ± 10
283.15 K	306 ± 10
284.15 K	305.9 ± 10
285.15 K	307 ± 10
286.15 K	307.4 ± 10
287.15 K	308.9 ± 10
288.15 K	309.3 ± 10
289.15 K	310.1 ± 10
290.15 K	310.6 ± 10
291.15 K	311.8 ± 10
292.15 K	312.5 ± 10
293.15 K	312.9 ± 10
294.15 K	313.5 ± 10
295.15 K	314.7 ± 10
296.15 K	315.1 ± 10
297.15 K	316.1 ± 10
298.15 K	316.4 ± 10
299.15 K	316.9 ± 10
300.15 K	319.7 ± 11
301.15 K	320.5 ± 11
302.15 K	321.2 ± 11
303.15 K	322.1 ± 11
304.15 K	323 ± 11
305.15 K	324.7 ± 11
306.15 K	325.1 ± 11
307.15 K	326.1 ± 11
308.15 K	327.2 ± 11
309.15 K	328.5 ± 11
310.15 K	329.3 ± 11
311.15 K	330 ± 11
312.15 K	331.2 ± 11
313.15 K	331.9 ± 11
314.15 K	332.7 ± 11
315.15 K	333.4 ± 11
316.15 K	334.4 ± 11
317.15 K	335.9 ± 11
318.15 K	336.8 ± 11
319.15 K	337.6 ± 11
320.15 K	338.3 ± 11
321.15 K	339.8 ± 11
322.15 K	340.7 ± 11
323.15 K	343.5 ± 11
324.15 K	344.4 ± 11
325.15 K	345.5 ± 12
326.15 K	346.3 ± 12
327.15 K	347.4 ± 12
328.15 K	348.5 ± 12
329.15 K	349.7 ± 12
330.15 K	350.6 ± 12
331.15 K	351.4 ± 12
332.15 K	352.2 ± 12
333.15 K	353.2 ± 12
334.15 K	354.1 ± 12
335.15 K	355 ± 12
336.15 K	356.1 ± 12
337.15 K	357.1 ± 12
338.15 K	358.3 ± 12
339.15 K	359.3 ± 12
340.15 K	359.9 ± 12
341.15 K	360.8 ± 12
342.15 K	362 ± 12
343.15 K	363.1 ± 12
344.15 K	363.9 ± 12
345.15 K	364.6 ± 12
346.15 K	365.7 ± 12
347.15 K	366.7 ± 12
348.15 K	367.5 ± 12
349.15 K	368.3 ± 12
350.15 K	369.4 ± 12
351.15 K	370.6 ± 12
352.15 K	371.3 ± 12
353.15 K	374.6 ± 12
354.15 K	375.6 ± 12
355.15 K	376.7 ± 12
356.15 K	378.1 ± 12
357.15 K	379 ± 13
358.15 K	379.6 ± 13
359.15 K	380.8 ± 13
360.15 K	381.6 ± 13
361.15 K	382.3 ± 13
362.15 K	383 ± 13
363.15 K	383.8 ± 13
364.15 K	384.8 ± 13
365.15 K	386.1 ± 13
366.15 K	387.2 ± 13
367.15 K	387.8 ± 13
368.15 K	389.1 ± 13
369.15 K	391 ± 13
370.15 K	393.2 ± 13
371.15 K	395.8 ± 13
372.15 K	396.3 ± 13
373.15 K	397.3 ± 13

[2]
Conditions	vapor or sublimation pressure [kPa]
342.25 K	3.35e-06 ± 1.9e-07
344.44 K	4.39e-06 ± 2.5e-07
347.56 K	6.8e-06 ± 4e-07
351.64 K	1.11e-05 ± 6e-07
353.37 K	1.42e-05 ± 8e-07
356.81 K	1.93e-05 ± 1e-06
358.08 K	2.17e-05 ± 1.2e-06

Conditions	Molar enthalpy of transition or fusion [kcal/mol]	Normal melting temperature [°C]
[2]	–	162.1 ± 0.5
[3]	6.52 ± 0.167	–

OC(c1ccccc1)c1ccccc1 [diphenylmethanol]
[1], Crystal
Conditions	molar heat capacity at constant pressure [J/K/mol]
259.15 K	202.8 ± 6.7
260.15 K	203.3 ± 6.7
261.15 K	203.9 ± 6.8
262.15 K	204.6 ± 6.8
263.15 K	205.2 ± 6.8
264.15 K	206.1 ± 6.8
265.15 K	206.8 ± 6.9
266.15 K	207.6 ± 6.9
267.15 K	208.5 ± 6.9
268.15 K	209.5 ± 7
269.15 K	210.3 ± 7
270.15 K	211.1 ± 7
271.15 K	211.7 ± 7
272.15 K	212.5 ± 7.1
273.15 K	213.8 ± 7.1
274.15 K	214.1 ± 7.1
275.15 K	215.2 ± 7.1
276.15 K	215.9 ± 7.2
277.15 K	216.9 ± 7.2
278.15 K	216.8 ± 7.2
279.15 K	217.6 ± 7.2
280.15 K	218.5 ± 7.2
281.15 K	219.4 ± 7.3
282.15 K	220.2 ± 7.3
283.15 K	221 ± 7.3
284.15 K	221.8 ± 7.4
285.15 K	222.8 ± 7.4
286.15 K	223.3 ± 7.4
287.15 K	224.3 ± 7.4
288.15 K	225 ± 7.5
289.15 K	225.8 ± 7.5
290.15 K	226.5 ± 7.5
291.15 K	227.4 ± 7.5
292.15 K	228.2 ± 7.6
293.15 K	229.1 ± 7.6
294.15 K	229.9 ± 7.6
295.15 K	230.7 ± 7.7
296.15 K	231.9 ± 7.7
297.15 K	232 ± 7.7
298.15 K	233 ± 7.7
299.15 K	233.7 ± 7.8
300.15 K	234.5 ± 7.8
301.15 K	235.4 ± 7.8
302.15 K	236.2 ± 7.8
303.15 K	237 ± 7.9
304.15 K	237.8 ± 7.9
305.15 K	238.7 ± 7.9
306.15 K	239.6 ± 7.9
307.15 K	240.7 ± 8
308.15 K	241.8 ± 8
309.15 K	242.5 ± 8
310.15 K	243.3 ± 8.1
311.15 K	244.2 ± 8.1
312.15 K	245.2 ± 8.1
313.15 K	246 ± 8.2
314.15 K	247 ± 8.2
315.15 K	247.8 ± 8.2
316.15 K	248.8 ± 8.3
317.15 K	249.8 ± 8.3
318.15 K	250.7 ± 8.3
319.15 K	251.7 ± 8.4
320.15 K	252.5 ± 8.4
321.15 K	253.5 ± 8.4
322.15 K	254.4 ± 8.4
323.15 K	255.3 ± 8.5
324.15 K	256.4 ± 8.5
325.15 K	257.4 ± 8.5
326.15 K	258.5 ± 8.6
327.15 K	259.5 ± 8.6
328.15 K	260.7 ± 8.6
329.15 K	261.8 ± 8.7
330.15 K	263.1 ± 8.7
331.15 K	265.1 ± 8.8
332.15 K	267 ± 8.9

Conditions	mass density [kg/m3]
[2], 298 K, 101.33 kPa, Pycnometric method	1210 ± 40

[2]
Conditions	vapor or sublimation pressure [kPa]
301.97 K	0.000128 ± 7e-06
304.52 K	0.00018 ± 1e-05
305.16 K	0.000198 ± 1.1e-05
308.1 K	0.00028 ± 1.5e-05
311.41 K	0.000446 ± 2.4e-05
314.06 K	0.00061 ± 3e-05
317.02 K	0.00091 ± 5e-05

Conditions	Molar enthalpy of transition or fusion [kcal/mol]	Normal melting temperature [°C]
[2]	–	66.2 ± 0.8
[3]	5.66 ± 0.12	–

CC(O)c1ccccc1 (configuration not stated) [1-phenylethanol]
[1], Liquid
Conditions	molar heat capacity at constant pressure [J/K/mol]
297.15 K	262.4 ± 8.7
298.15 K	263.1 ± 8.7
299.15 K	263.9 ± 8.8
300.15 K	264.6 ± 8.8
301.15 K	265.1 ± 8.8
302.15 K	265.8 ± 8.8
303.15 K	267.1 ± 8.9
304.15 K	267.9 ± 8.9
305.15 K	268.5 ± 8.9
306.15 K	269.4 ± 8.9
307.15 K	269.8 ± 8.9
308.15 K	271 ± 9
309.15 K	271.7 ± 9
310.15 K	272.4 ± 9
311.15 K	273 ± 9.1
312.15 K	273.7 ± 9.1
313.15 K	274.7 ± 9.1
314.15 K	275.1 ± 9.1
315.15 K	275.7 ± 9.1
316.15 K	276.4 ± 9.2
317.15 K	277.3 ± 9.2
318.15 K	278.2 ± 9.2
319.15 K	279.1 ± 9.3
320.15 K	279.6 ± 9.3
321.15 K	280.3 ± 9.3
322.15 K	281 ± 9
323.15 K	281.5 ± 9.3
324.15 K	282.2 ± 9.4
325.15 K	283 ± 9.4
326.15 K	283.9 ± 9.4
327.15 K	284.4 ± 9.4
328.15 K	284.8 ± 9.4
329.15 K	285.4 ± 9.5
330.15 K	286 ± 9.5
331.15 K	286.7 ± 9.5
332.15 K	287.3 ± 9.5
333.15 K	288.1 ± 9.6
334.15 K	288.9 ± 9.6
335.15 K	289.6 ± 9.6
336.15 K	290.2 ± 9.6
337.15 K	290.6 ± 9.6
338.15 K	291.2 ± 9.7
339.15 K	292 ± 9.7
340.15 K	292.5 ± 9.7
341.15 K	293 ± 9.7
342.15 K	293.6 ± 9.7
343.15 K	294.2 ± 9.8
344.15 K	295.2 ± 9.8
345.15 K	295.7 ± 9.8
346.15 K	296.3 ± 9.8
347.15 K	296.9 ± 9.8
348.15 K	297.5 ± 9.9
349.15 K	298.1 ± 9.9
350.15 K	298.3 ± 9.9
351.15 K	298.8 ± 9.9
352.15 K	299.2 ± 9.9
353.15 K	300.7 ± 10
354.15 K	300.8 ± 10
355.15 K	301.7 ± 10
356.15 K	302.8 ± 10
357.15 K	303.4 ± 10
358.15 K	303.8 ± 10
359.15 K	303.9 ± 10
360.15 K	304.5 ± 10
361.15 K	305.3 ± 10
362.15 K	305.7 ± 10
363.15 K	306.1 ± 10
364.15 K	307 ± 10
365.15 K	307.7 ± 10
366.15 K	308.4 ± 10
367.15 K	308.6 ± 10
368.15 K	308.9 ± 10
369.15 K	309.5 ± 10
370.15 K	310.3 ± 10
371.15 K	311.1 ± 10
372.15 K	311.6 ± 10
373.15 K	311.8 ± 10

Conditions	Molar enthalpy of transition or fusion [kcal/mol]	Normal melting temperature [°C]
[2]	–	18.6 ± 0.8
[3]	3.82 ± 0.478	–
